From patent US7129080B2 (priority 2001, dated 2006) come the findings set out here.

For test [1], the system named is prion model. The test can be described thus: organism not typed. Format: cell-based.
The subject of test [2] is prion model. Format: cell-based. The following applies: ethylene oxide 600 mg/L, 18 mins, initial count 8.5.
In test [3] the test system is prion model. It is filed as biochemical.

Molecules are shown by their SMILES. ≈ marks a conversion by molar mass, not a printed value. Where a name gives a salt, the structure may show the parent alone. Read-outs that look alike come from different tables or passages of the source.

For `Cl` [HCl], the “concentration showing at least some effect on growth of the prion model (MIC test)” value (shortened to “concentration showing”) in test [1] is approximately 0.1 N.

As for `[Mn+2]` [Manganese], in test [1], the “activity at inhibiting the growth of the prion model in culture media” value (“activity at inhibiting the growth” for short) was “measurable activity” and the “concentration showing” value is on record as approximately 100 mg/L.

Take `O=[N+]([O-])[O-].[Ag+]` [silver nitrate]: in test [1], the “activity at inhibiting the growth” value is reported as “measurable activity” and the “concentration showing” value is approximately 30 mg/L.

Turning to `C1CO1` [ethylene oxide], the “Prion count in Logs” value worked out at 4.7 Logs in test [2] (54° C., 40% RH) and 5.0 Logs in test [2] (70° C., 100% RH).

Turning to `CC(=O)OO` [Peracetic acid], the MIC in test [1] (read-out: concentration showing at least some effect on growth of the prion model (MIC test)) was approximately 600 mg/L (≈ 7.89 mM). Also, in test [3], the “breakdown of the protein” value is “break down the protein to a form which is inactive”.

Take `[Na+].[OH-]` [NaOH, sodium hydroxide]: in test [1], the “activity at inhibiting the growth” value is given as “effective” and the “concentration showing” value is reported as approximately 0.01 N.

Take `NC[C@@H]1O[C@H](O[C@H]2[C@@H](O)[C@H](O[C@@H]3[C@@H](O)[C@H](N)C[C@H](N)[C@H]3O[C@H]3O[C@H](CN)[C@@H](O)[C@H](O)[C@H]3N)O[C@@H]2CO)[C@H](N)[C@@H](O)[C@@H]1O.O=S(=O)(O)O` [neomycin sulphate]: in test [1], the “activity at inhibiting the growth” value is “measurable activity” and the “concentration showing” value is on record as approximately 125 mg/L.
